Here are results for 36 compounds from patent US8153791B2, “Substituted pyrimidinyl oxime kinase inhibitors” (Janssen Pharmaceutica N.V., priority 2005, dated 2012).

The target in experiment [1] is T1, EGFR (Homo sapiens, UniProt P00533).
T1 construct: The intracellular portion of EGFR started at nucleotide 2189 (corresponding to amino acid 667) and ended at the termination codon; made in house; host or cells: Sf9 insect cells (baculovirus)
Briefly: EGFR Kinase Assay.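 As to all read-outs here: recombinant GST-tagged EGFR expressed in Sf9 cells, phosphorylating biotinylated polyGluTyr with γ-33P ATP on Streptavidin Flashplates, 1 h at 30 °C, scintillation counting, inhibition relative to plate maximum and minimum signals.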 The class given is biochemical. The settings on record: for inhibition at 2 µM: test concentration of 2 μM.

The target in experiment [2] is T2, HER-2 (Homo sapiens, UniProt P04626).
T2 construct: purchased Proqinase (Freiburg, Germany)
Briefly: HER-2 Kinase Assay.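 As to all read-outs here: HER2 kinase reaction read by scintillation counting, inhibition scaled between maximum and minimum signals set on each plate, IC50 from inhibition against log concentration.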 Type of experiment: biochemical. The settings on record: for IC50: read-out: HER2 IC50.

Experiment [3] relates to HeLa cervical adenocarcinoma. In words: In vitro cell proliferation inhibition, HeLa. The class given is cell-based. As to conditions: Homo sapiens, read-out: HeLa IC50. The text has this:
The ability of a test compound to inhibit unregulated in vitro cell proliferation may be determined by measuring incorporation of ^14C-labelled thymidine into newly synthesized DNA within cell lines derived from carcinomas originating from several tissues. Accordingly, the effect of a test compound on proliferation of cells with a variety of phenotypes may be determined.
Carcinoma cell lines used include the HeLa cervical adenocarcinoma from the American Type Culture Collection (ATCC Cat. #CCL2), SK-OV-3 ovarian carcinoma (ATCC Cat. #HTB-77), MCF-7 breast carcinoma (ATCC Cat. #HTB-22), BT474 breast carcinoma (ATCC Cat. #HTB-20), SKBR3 breast carcinoma (ATCC Cat. #HTB-30), A431 epidermoid carcinoma (ATCC Cat. #CRL-1555) and NCI-N87 gastric carcinoma (ATCC Cat. #CRL-5822).
The carcinoma cells are trypsinized and counted. The cells (3000-8000 count) are added to each well of a 96-well CytoStar tissue culture treated scintillating microplate (Amersham #RPNQ0160) in complete medium (100 μL) and the plate is then incubated in complete medium for 24 hrs at 37° C. in an inert atmosphere containing 5% CO2.
Test compound (1 μL) in 100% DMSO is added to the plate test-wells with DMSO only added to control-wells. The plate is incubated in complete medium for a second 24 hr period at 37° C. in an atmosphere containing 5% CO2.
An aliquot of a solution of Methyl ^14C-thymidine (56 mC/mmol) (NEN #NEC568 or Amersham #CFA532) and complete medium (20 μL to provide 0.2 μCi/well) is then added to each well and the plate is incubated for a third 24 hr period at 37° C. in an atmosphere containing 5% CO2.
The plate contents are then discarded, the plate is washed twice with PBS (200 μL) and then PBS (200 μL) is added to each well. The plate is sealed and the degree of methyl ^14C-thymidine incorporation is quantified on a Packard Top Count.
Cell proliferation of the Hela cell line was measured using the ATP-Lite method as described in the ATP Lite Kit (Perkin-Elmer Kit Number 6106941) or the C^14 method as described above. Cell proliferation of the other cell lines was measured using the C^14 method.
The term “NT” means that the compound indicated was not tested in a particular cell line. The lack of such testing is not intended to imply a belief that the compound is not otherwise active in a particular cell line or any other cell line not tested.

Where [4] appears, read: HeLa cell line, ATP-Lite method or C14 thymidine method.

Like-named read-outs stand apart in the source and are kept apart here. Some results are limits rather than exact numbers.

T2 sequence (P04626 679-1255): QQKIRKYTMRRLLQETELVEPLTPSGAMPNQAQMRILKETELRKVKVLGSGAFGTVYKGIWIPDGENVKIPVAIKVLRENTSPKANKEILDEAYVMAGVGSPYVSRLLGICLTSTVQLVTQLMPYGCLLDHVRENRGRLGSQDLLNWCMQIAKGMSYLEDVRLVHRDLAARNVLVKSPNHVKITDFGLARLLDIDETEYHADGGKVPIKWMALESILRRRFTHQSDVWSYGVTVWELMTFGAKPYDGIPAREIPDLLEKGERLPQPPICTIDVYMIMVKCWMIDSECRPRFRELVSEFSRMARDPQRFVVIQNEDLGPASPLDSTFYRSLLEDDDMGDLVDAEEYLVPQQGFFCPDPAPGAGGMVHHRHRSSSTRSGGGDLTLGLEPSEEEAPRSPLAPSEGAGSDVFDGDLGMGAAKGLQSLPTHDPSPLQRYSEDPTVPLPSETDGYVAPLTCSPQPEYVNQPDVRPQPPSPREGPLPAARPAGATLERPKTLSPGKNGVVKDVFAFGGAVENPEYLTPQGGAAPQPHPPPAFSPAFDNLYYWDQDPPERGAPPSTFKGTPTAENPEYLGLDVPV
T1 sequence (P00533 669-1210 limits assumed): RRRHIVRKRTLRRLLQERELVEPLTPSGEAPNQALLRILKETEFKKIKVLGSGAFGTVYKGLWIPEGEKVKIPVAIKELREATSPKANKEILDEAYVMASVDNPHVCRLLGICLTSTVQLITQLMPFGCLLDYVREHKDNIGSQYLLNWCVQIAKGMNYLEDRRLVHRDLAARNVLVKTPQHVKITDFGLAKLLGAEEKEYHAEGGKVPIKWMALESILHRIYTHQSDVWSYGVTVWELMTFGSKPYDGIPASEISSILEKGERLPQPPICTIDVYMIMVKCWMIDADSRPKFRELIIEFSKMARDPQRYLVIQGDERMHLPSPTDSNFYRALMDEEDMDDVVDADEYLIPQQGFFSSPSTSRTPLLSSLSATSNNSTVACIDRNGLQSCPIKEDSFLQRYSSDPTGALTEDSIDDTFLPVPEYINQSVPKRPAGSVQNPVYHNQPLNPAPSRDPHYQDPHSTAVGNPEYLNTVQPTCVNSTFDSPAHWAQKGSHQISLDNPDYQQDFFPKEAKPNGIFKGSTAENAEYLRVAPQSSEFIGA

As a reminder, the IC50 is the concentration that gives 50% inhibition. Regarding `CCO/N=C/c1c(N)ncnc1Nc1ccc2c(cnn2Cc2cccc(Cl)c2)c1` [Cpd 55, (5E)-4-amino-6-[1-(3-chloro-benzyl)-1H-indazol-5-ylamino]-pyrimidine-5-carbaldehyde O-ethyl-oxime], the half-inhibitory concentration (IC50) was 0.04 µM in experiment [1] and 0.03 µM in experiment [2]. In the same order, the values of `CO/N=C/c1c(N)ncnc1Nc1ccc(OC)c(Cl)c1` [Cpd 63] are 1.2 µM and 1 µM. As for `Nc1ncnc(Nc2ccc3c(cnn3Cc3cccc(F)c3)c2)c1/C=N/Oc1ccccc1` [Cpd 65, (5E)-4-amino-6-[1-(3-fluoro-benzyl)-1H-indazol-5-ylamino]-pyrimidine-5-carbaldehyde O-phenyl-oxime], the concentration for half-maximal inhibition (IC50) in experiment [1] stood at 0.04 µM; in experiment [2], 0.2 µM.

As to `CCO/N=C/c1c(N)ncnc1Nc1ccc2c(cnn2Cc2ccc(F)cc2)c1` [Cpd 67, (5E)-4-amino-6-[1-(4-fluoro-benzyl)-1H-indazol-5-ylamino]-pyrimidine-5-carbaldehyde O-ethyl-oxime], the IC50 is 0.1 µM in experiment [1] and 0.2 µM in experiment [2]. Consider `Nc1ncnc(Nc2ccc3c(cnn3Cc3cccc(F)c3)c2)c1/C=N\OCCCO` [Cpd 69, (5Z)-4-amino-6-[1-(3-fluoro-benzyl)-1H-indazol-5-ylamino]-pyrimidine-5-carbaldehyde O-(3-hydroxy-propyl)-oxime], for which the figures for the IC50 in experiment [1] and in experiment [2] were 0.01 µM and 0.004 µM, respectively.

Regarding `COCCO/N=C/c1c(N)ncnc1Nc1ccc(OCc2ccccc2)c(Cl)c1` [Cpd 71, (5E)-4-amino-6-(4-benzyloxy-3-chloro-phenylamino)-pyrimidine-5-carbaldehyde O-(2-methoxy-ethyl)-oxime], the IC50 came out at 0.01 µM in experiment [1] and 0.05 µM in experiment [2]. On to `Nc1ncnc(Nc2ccc(OCc3ccccc3)c(Cl)c2)c1/C=N/O` [Cpd 77, (5E)-4-amino-6-(4-benzyloxy-3-chloro-phenylamino)-pyrimidine-5-carbaldehyde oxime], for which the 50% inhibitory concentration (IC50) was 0.02 µM in experiment [1], 0.1 µM in experiment [2] and 10 µM in experiment [3] (setting [4]). In the same order, the values of `Nc1ncnc(Nc2ccc(OCc3cccc(F)c3)c(Cl)c2)c1/C=N/O` [Cpd 79, (5E)-4-amino-6-[3-chloro-4-(3-fluoro-benzyloxy)-phenylamino]-pyrimidine-5-carbaldehyde oxime] are 0.008 µM, 0.01 µM and 100 µM. Consider `CO/N=C/c1c(N)ncnc1Nc1ccc(Cl)cc1F` [Cpd 80], for which the IC50 was 0.3 µM in experiment [1] and 100 µM in experiment [3] (setting [4]). Turning to `CO/N=C\c1c(N)ncnc1Nc1ccc(Cl)cc1F` [Cpd 81], in experiment [3] (setting [4]), the IC50 came out at 10 µM. Turning to `CO/N=C/c1c(N)ncnc1Nc1ccc(Br)cc1F` [Cpd 82], the values for the IC50 in experiment [1] and in experiment [3] (setting [4]) were 0.2 µM and 100 µM, respectively. Regarding `CO/N=C\c1c(N)ncnc1Nc1ccc(Br)cc1F` [Cpd 83], the concentration for half-maximal inhibition (IC50) in experiment [3] (setting [4]) is 3.6 µM. Turning to `Nc1ncnc(Nc2ccc3c(cnn3Cc3cccc(F)c3)c2)c1/C=N/O` [Cpd 84, (5E)-4-amino-6-[1-(3-fluoro-benzyl)-1H-indazol-5-ylamino]-pyrimidine-5-carbaldehyde oxime], in experiment [3] (setting [4]), the IC50 turned out to be 4.9 µM. Consider `Nc1ncnc(Nc2ccc3c(cnn3Cc3cccc(F)c3)c2)c1/C=N/OCCCO` [Cpd 85, (5E)-4-amino-6-[1-(3-fluoro-benzyl)-1H-indazol-5-ylamino]-pyrimidine-5-carbaldehyde O-(3-hydroxy-propyl)-oxime], for which the IC50 in experiment [1] came to 0.02 µM; in experiment [2] it was 0.02 µM; in experiment [3] (HeLa), 15.6 µM.

On to `CO/N=C/c1c(NOC)ncnc1Nc1ccc(Br)cc1F` [Cpd 86], for which the concentration for half-maximal inhibition (IC50) in experiment [3] (setting [4]) came out at 100 µM.

Take `Nc1ncnc(Nc2ccc3c(ccn3Cc3cccc(F)c3)c2)c1/C=N/O` [Cpd 88, (5E)-4-amino-6-[1-(3-fluoro-benzyl)-1H-indol-5-ylamino]-pyrimidine-5-carbaldehyde oxime]: the IC50 in experiment [1] turned out to be 0.009 µM; in experiment [2], 0.02 µM; in experiment [3] (setting [4]), 10.9 µM.

For `CO/N=C/c1c(N)ncnc1Nc1cc(O)c(Cl)cc1F` [Cpd 89], the IC50 in experiment [3] (setting [4]) was found to be 10 µM. Same read-out and setting: the result for `CO/N=C\c1c(N)ncnc1Nc1cc(O)c(Cl)cc1F` [Cpd 90] reads 10 µM. As to `CO/N=C/c1c(N)ncnc1Nc1ccc(OCc2cc(F)cc(F)c2)c(Cl)c1` [Cpd 97, (5E)-4-amino-6-[3-chloro-4-(3,5-difluoro-benzyloxy)-phenylamino]-pyrimidine-5-carbaldehyde O-methyl-oxime], the IC50 in experiment [2] is 1 µM; in experiment [3] (setting [4]), 100 µM. Turning to `Nc1ncnc(Nc2ccc(OCc3cc(F)cc(F)c3)c(Cl)c2)c1/C=N/O` [Cpd 98, (5E)-4-amino-6-[3-chloro-4-(3,5-difluoro-benzyloxy)-phenylamino]-pyrimidine-5-carbaldehyde oxime], the IC50 in experiment [1] was 0.02 µM; in experiment [2], 0.1 µM; in experiment [3] (setting [4]) it was 100 µM. Take `C[C@H](Nc1ncnc(N)c1/C=N/O)c1ccccc1` [Cpd 100, (5E)-4-amino-6-[(1S)-1-phenyl-ethylamino]-pyrimidine-5-carbaldehyde oxime]: the IC50 was determined as 0.02 µM in experiment [1] and 10 µM in experiment [3] (setting [4]). In the case of `C[C@H](Nc1ncnc(N)c1/C=N/OCCN1CCOCC1)c1ccccc1` [Cpd 103], in experiment [3] (setting [4]), the IC50 is 10 µM. For the compound `CO/N=C/c1c(N)ncnc1Nc1ccc(NC(=O)c2ccccc2)cc1` [Cpd 104], the IC50 in experiment [3] (setting [4]) amounted to 10 µM. For `Nc1ncnc(Nc2ccc(NC(=O)c3ccccc3)cc2)c1/C=N/O` [Cpd 105], the IC50 in experiment [3] (setting [4]) amounted to 100 µM.

As for `C[C@H](Nc1ncnc(N)c1/C=N/OCCN1CCCCC1)c1ccccc1` [Cpd 106], the IC50 in experiment [3] (setting [4]) stood at 10 µM. Same read-out and setting: the figure for `Nc1ncnc(Nc2ccc(NC(=O)c3ccccc3)cc2)c1/C=N/OCCN1CCOCC1` [Cpd 107] is 100 µM; for `Nc1ncnc(Nc2ccc(Oc3ccccc3)cc2)c1/C=N/OCCN1CCOCC1` [Cpd 109] it is 100 µM.

On to `CO/N=C/c1c(N)ncnc1Nc1cnc(NC(=O)c2ccccc2)nc1` [Cpd 110], for which, in experiment [3] (setting [4]), the IC50 was found to be 33.1 µM. `Nc1ncnc(Nc2ccc(Oc3ccccc3)cc2)c1/C=N/O` [Cpd 111, (5E)-4-amino-6-(4-phenoxy-phenylamino)-pyrimidine-5-carbaldehyde oxime]: the figures for the IC50 in experiment [1] and in experiment [2] were 0.1 µM and 0.3 µM, respectively. A word on the inhibition: it is the percentage by which the read-out fell short of the control. Consider `CON=Cc1c(N)ncnc1Nc1ccc(OC)cc1` [Cpd 120, 4-amino-6-(4-methoxy-phenylamino)-pyrimidine-5-carbaldehyde O-methyl-oxime], for which, in experiment [1], the inhibition at 2 µM came to 15%. Also, the concentration for half-maximal inhibition (IC50) in experiment [2] was 7.92 µM. In the same order, the values of `CON=Cc1c(N)ncnc1NCc1ccc(OC)c(OC)c1` [Cpd 122, 4-amino-6-(3,4-dimethoxy-benzylamino)-pyrimidine-5-carbaldehyde O-methyl-oxime] are 6% and greater than 100 µM. In turn, `CON=Cc1c(N)ncnc1NCc1ccc(Oc2ccccc2)cc1` [Cpd 123, 4-amino-6-(4-phenoxy-benzylamino)-pyrimidine-5-carbaldehyde O-methyl-oxime] gave an inhibition at 2 µM in experiment [1] of 7%. For the same compound, in experiment [2], the IC50 is greater than 100 µM. In the same order, the values of `CON=Cc1c(N)ncnc1NC1CCc2ccccc21` (stereo not shown) [Cpd 124, 4-amino-6-(indan-1-ylamino)-pyrimidine-5-carbaldehyde O-methyl-oxime] are 26% and 2.46 µM. In turn, `CON=Cc1c(N)ncnc1NC1CCCc2ccccc21` (stereo not shown) [Cpd 125, 4-amino-6-(1,2,3,4-tetrahydro-naphthalen-1-ylamino)-pyrimidine-5-carbaldehyde O-methyl-oxime] displayed an inhibition at 2 µM in experiment [1] of 42%. Besides, the inhibition at 1 µM in experiment [2] (test concentration of 1 μM, read-out: HER2 % inhibition) was determined as 25%. On to `CON=Cc1c(N)ncnc1Nc1ccc(Oc2ccccc2)nc1` [Cpd 128, 4-amino-6-(6-phenoxy-pyridin-3-ylamino)-pyrimidine-5-carbaldehyde O-methyl-oxime], for which 2 µM produced 45% inhibition in experiment [1]. The IC50 in experiment [2] is 1.82 µM.

The compound `CON=Cc1c(N)ncnc1Nc1ccc(N2CCOCC2)nc1` [Cpd 129, 4-amino-6-(6-morpholin-4-yl-pyridin-3-ylamino)-pyrimidine-5-carbaldehyde O-methyl-oxime] yielded an inhibition at 2 µM in experiment [1] of 1%. The IC50 in experiment [2] was greater than 100 µM.
